Experiments:
[1] = target: EP4 (Homo sapiens (Human), UniProt P35408); assay: hEP4 cAMP assay (BT549 breast cancer cells, HTRF cAMP); format: cell-based; settings: antagonistic activity; mean values where measured multiple times
Method: Plate is pre-incubated 45 minutes at room temperature. Subsequently, 2.5 microliters of PGE2 (final conc. 6 nM) are transferred into the assay plate. Plate is incubated 30 minutes at room temperature.

[2] = target: EP2 (Homo sapiens (Human), UniProt P43116);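 also: antagonism of PGE2-stimulated cAMP accumulation in SF295 human glioblastoma cells with endogenous EP2, cAMP read by HTRF, expressed relative to DMSO control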
Chain of EP2 (P43116 whole entry): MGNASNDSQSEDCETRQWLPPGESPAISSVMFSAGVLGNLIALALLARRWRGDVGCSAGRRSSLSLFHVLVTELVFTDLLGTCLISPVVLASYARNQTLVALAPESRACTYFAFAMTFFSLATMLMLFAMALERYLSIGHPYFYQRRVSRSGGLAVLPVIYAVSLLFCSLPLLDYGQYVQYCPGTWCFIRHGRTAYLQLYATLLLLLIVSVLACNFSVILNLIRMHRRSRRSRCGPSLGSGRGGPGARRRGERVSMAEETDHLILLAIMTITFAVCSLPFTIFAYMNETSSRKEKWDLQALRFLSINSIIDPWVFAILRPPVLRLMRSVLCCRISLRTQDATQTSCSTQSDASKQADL

Chain of EP4 (P35408 whole entry): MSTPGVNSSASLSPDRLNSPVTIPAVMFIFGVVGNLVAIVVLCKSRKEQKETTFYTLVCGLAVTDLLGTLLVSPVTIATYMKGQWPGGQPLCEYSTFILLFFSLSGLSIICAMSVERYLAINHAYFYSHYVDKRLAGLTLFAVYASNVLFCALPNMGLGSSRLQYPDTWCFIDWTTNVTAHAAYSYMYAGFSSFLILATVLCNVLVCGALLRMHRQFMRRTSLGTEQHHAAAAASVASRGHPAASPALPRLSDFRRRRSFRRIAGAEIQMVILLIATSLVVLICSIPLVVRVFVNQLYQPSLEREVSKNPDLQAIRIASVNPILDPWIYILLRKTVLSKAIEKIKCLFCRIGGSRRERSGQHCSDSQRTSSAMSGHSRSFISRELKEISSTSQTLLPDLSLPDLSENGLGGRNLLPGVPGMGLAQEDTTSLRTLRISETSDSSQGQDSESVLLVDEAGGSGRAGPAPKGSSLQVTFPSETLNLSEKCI

Row | SMILES | IC50 [1] | IC50 [2]
1 | COc1cc(F)cc2c1cc(C)n2CCNc1cc(-c2ccc(-c3cc(C)[nH]n3)cc2)ncn1 [compound 583] | 65 nM | 10 nM
2 | COc1ccc(F)c2c1cc(C)n2CCNc1cc(-c2ccc(-c3cncn3C)cc2)ncn1 [compound 584] | 148 nM | 39 nM
3 | COc1cc(F)cc2c1cc(C)n2CCNc1cc(-c2ccc(-c3coc(C)n3)cc2)ncn1 [compound 585] | 203 nM | 31 nM
4 | CCOc1cc(-c2cc(NCCn3c(C)cc4c(OC)ccc(F)c43)ncn2)ccc1CNCC(C)C [compound 586] | 865 nM | 729 nM
5 | COc1cc(F)cc2c1cc(C)n2CCNc1cc(-c2ccc(C(=O)O)c(NCC(F)(F)F)c2)ncn1 [compound 587, 4-{6-[2-(6-Fluoro-4-methoxy-2-methyl-indol-1-yl)-ethylamino]-pyrimidin-4-yl}-2-(2,2,2-trifluoro-ethylamino)-benzoic acid] | 106 nM | 2 nM
6 | COc1ccc(F)c2c1cc(C)n2CCNc1cc(-c2ccc(C(=O)O)c(NCC(F)(F)F)c2)ncn1 [compound 588, 4-{6-[2-(7-Fluoro-4-methoxy-2-methyl-indol-1-yl)-ethylamino]-pyrimidin-4-yl}-2-(2,2,2-trifluoro-ethylamino)-benzoic acid] | 92 nM | 2 nM
7 | CCOc1cc(-c2cc(NCCn3c(C)cc4c(OC)ccc(F)c43)ncn2)ccc1CNCCOC [compound 589] | 707 nM | 228 nM
8 | COc1ccc(F)c2c1cc(C)n2CCNc1cc(-c2ccc(-c3ccccn3)cc2)ncn1 [compound 590] | 178 nM | 18 nM
9 | CNS(=O)(=O)c1ccc(-c2cc(NCCn3c(C)cc4c(OC)ccc(F)c43)ncn2)cc1C(F)(F)F [compound 591, 4-{6-[2-(7-Fluoro-4-methoxy-2-methyl-indol-1-yl)-ethylamino]-pyrimidin-4-yl}-N-methyl-2-trifluoromethyl-benzenesulfonamide] | 294 nM | 33 nM
10 | CNc1nnc(-c2ccc(-c3cc(NCCn4c(C)cc5c(C)cc(F)cc54)ncn3)cc2)s1 [compound 592] | 39 nM | 13 nM
11 | COc1ccc(F)c2c1cc(C)n2CCNc1cc(-c2ccc(-c3n[nH]cc3C(=O)O)cc2)ncn1 [compound 593] | 435 nM | 157 nM
12 | COc1ccc(F)c2c1cc(C)n2CCNc1cc(-c2ccc(-c3cc(C(=O)O)[nH]n3)cc2)ncn1 [compound 594] | 42 nM | 190 nM
13 | COc1ccc(F)c2c1cc(C)n2CCNc1cc(-c2ccc(C(=O)O)c(OC3CCCC3)c2)ncn1 [compound 595, 2-Cyclopentyloxy-4-{6-[2-(7-fluoro-4-methoxy-2-methyl-indol-1-yl)-ethylamino]-pyrimidin-4-yl}-benzoic acid] | 73 nM | 10 nM
14 | COc1ccc(F)c2c1cc(C)n2CCNc1cc(-c2ccc(-c3onc(C)c3C(=O)O)cc2)ncn1 [compound 596] | 222 nM | 10 nM
15 | CCOc1cc(-c2cc(NCCn3c(C)cc4c(OC)ccc(F)c43)ncn2)ccc1CNC1CCC1 [compound 597] | 719 nM | 175 nM
16 | COc1cccc2c1cc(C)n2CCNc1cc(-c2ccc(C(=O)O)c(OC(F)F)c2)ncn1 [compound 598] | 336 nM | 2 nM
17 | CCOc1cc(-c2cc(NCCn3c(C)cc4c(OC)cccc43)ncn2)cc(Cl)c1C(=O)O [compound 599] | 196 nM | 13 nM
18 | Cc1cc(F)cc2c1cc(C)n2CCNc1cc(-c2ccc(C(=O)O)c(OC(F)F)c2)ncn1 [compound 600] | 319 nM | 14 nM
19 | Cc1ccc(F)c2c1cc(C)n2CCNc1cc(-c2ccc(C(=O)O)c(OC(F)F)c2)ncn1 [compound 601] | 122 nM | 12 nM

Row | SMILES | IC50 [1] | IC50 [2]
20 | CCS(=O)(=O)Nc1cc(-c2cc(NCCn3c(C)cc4c(C)ccc(F)c43)ncn2)ccc1C(=O)O [compound 602] | 805 nM | 163 nM
21 | COc1cc(F)cc2c1cc(C#N)n2CCNc1cc(-c2ccc(C(=O)O)c(CC(C)C)c2)ncn1 [compound 603] | 15 nM | 41 nM
22 | COc1cc(F)cc2c1cc(C)n2CCNc1cc(-c2ccc(C(=O)O)c(OC(F)(F)F)c2)ncn1 [compound 604] | 325 nM | 16 nM
23 | COc1ccc(Cl)c2c1cc(C)n2CCNc1cc(-c2ccc(C(=O)O)c(OC(F)(F)F)c2)ncn1 [compound 605] | 829 nM | 48 nM
24 | COc1ccc(F)c2c1cc(C)n2CCNc1cc(-c2ccc(C(=O)O)c(OC(F)(F)F)c2)ncn1 [compound 606] | 186 nM | 8 nM
25 | CCCOc1cc(-c2cc(NCCn3c(C)cc4c(OC)cc(F)cc43)ncn2)cc(Cl)c1C(=O)O [compound 607] | 111 nM | 25 nM
26 | CCCOc1cc(-c2cc(NCCn3c(C)cc4c(OC)cc(F)cc43)ncn2)cc(F)c1C(=O)O [compound 608] | 126 nM | 24 nM
27 | CCCOc1cc(-c2cc(NCCn3c(C)cc4c(OC)ccc(F)c43)ncn2)cc(Cl)c1C(=O)O [compound 609] | 42 nM | 10 nM
28 | CCCOc1cc(-c2cc(NCCn3c(C)cc4c(OC)ccc(F)c43)ncn2)cc(F)c1C(=O)O [compound 610] | 139 nM | 22 nM
29 | CCCCOc1cc(-c2cc(NCCn3c(C)cc4c(OC)cc(F)cc43)ncn2)ccc1C(=O)O [compound 611] | 56 nM | 4 nM
30 | COc1cc(F)cc2c1cc(C)n2CCNc1cc(-c2ccc(C(=O)O)c(OCC(C)C)c2)ncn1 [compound 612] | 79 nM | 8 nM
31 | CCCCOc1cc(-c2cc(NCCn3c(C)cc4c(OC)ccc(Cl)c43)ncn2)ccc1C(=O)O [compound 613] | 221 nM | 4 nM
32 | COc1ccc(Cl)c2c1cc(C)n2CCNc1cc(-c2ccc(C(=O)O)c(OCC(C)C)c2)ncn1 [compound 614] | 193 nM | 12 nM
33 | CCCCOc1cc(-c2cc(NCCn3c(C)cc4c(OC)ccc(F)c43)ncn2)ccc1C(=O)O [compound 615] | 39 nM | 2 nM
34 | COc1ccc(F)c2c1cc(C)n2CCNc1cc(-c2ccc(C(=O)O)c(OCC(C)C)c2)ncn1 [compound 616] | 85 nM | 5 nM
35 | CCOc1cc(-c2cc(NCCn3c(C)cc4c(OC)ccc(Cl)c43)ncn2)cc(CC)c1C(=O)O [compound 617] | 952 nM | 60 nM
36 | CCOc1cc(-c2cc(NCCn3c(C)cc4c(OC)ccc(F)c43)ncn2)cc(CC)c1C(=O)O [compound 618] | 395 nM | 24 nM
37 | CCCc1cc(-c2cc(NCCn3c(C)cc4c(OC)ccc(F)c43)ncn2)cc(OC)c1C(=O)O [compound 619] | 249 nM | 9 nM
38 | CCCOc1cc(-c2cc(NCCn3c(C)cc4c(F)cc(F)c(F)c43)ncn2)cc(Cl)c1C(=O)O [compound 620] | 561 nM | 6 nM

Row | SMILES | IC50 [1] | IC50 [2]
39 | COc1cc(F)c(F)c2c1cc(C)n2CCNc1cc(-c2ccc(C(=O)O)c(CC(C)C)c2)ncn1 [compound 621] | 57 nM | 34 nM
40 | COc1c(Cl)cc(F)c2c1cc(C)n2CCNc1cc(-c2ccc(C(=O)O)c(CC(C)C)c2)ncn1 [compound 622] | 303 nM | 732 nM
41 | COc1cc(F)cc2c1cc(C)n2CCNc1cc(-c2ccc(C(=O)O)c(CC(C)C)c2)nc(C)n1 [compound 623] | 130 nM | 45 nM
42 | CCCc1cc(-c2cc(NCCn3c(C)cc4c(C)ccc(F)c43)ncn2)cc(OCC)c1C(=O)O [compound 624] | 501 nM | 48 nM
43 | COc1ccc(F)c2c1cc(C)n2CCNc1cc(-c2ccc(C(=O)O)c(CC(C)C)c2)nc(C)n1 [compound 625] | 70 nM | 16 nM
44 | CCOc1cc(-c2cc(NCCn3c(C)cc4c(C)cc(F)cc43)nc(C(F)(F)F)n2)sc1C(=O)O [compound 626] | 356 nM | 51 nM
45 | CCCOc1cc(-c2cc(NCCn3c(C)cc4c(C)cc(F)c(F)c43)ncn2)cc(F)c1C(=O)O [compound 627] | 197 nM | 48 nM
46 | CCCOc1cc(-c2cc(NCCn3c(C)cc4c(C)cc(F)c(F)c43)ncn2)cc(Cl)c1C(=O)O [compound 628] | 254 nM | 89 nM
47 | CCCOc1cc(-c2cc(NCCn3c(C)cc4c(C)c(F)cc(F)c43)ncn2)cc(Cl)c1C(=O)O [compound 629] | 98 nM | 26 nM
48 | COc1cc(F)cc2c1cc(C)n2CCNc1cc(-c2ccc(C(=O)O)c(OC(F)F)c2)ncn1 [compound 630] | 142 nM | 6 nM
49 | COc1ccc(Cl)c2c1cc(C)n2CCNc1cc(-c2ccc(C(=O)O)c(OC(F)F)c2)ncn1 [compound 631] | 320 nM | 14 nM
50 | CCCc1cc(-c2cc(NCCn3c(C)cc4c(OC)ccc(Cl)c43)ncn2)cc(OCC)c1C(=O)O [compound 633] | 750 nM | 60 nM
51 | CCCc1cc(-c2cc(NCCn3c(C)cc4c(OC)ccc(F)c43)ncn2)cc(OCC)c1C(=O)O [compound 634] | 196 nM | 27 nM
52 | CCOc1cc(-c2cc(NCCn3c(C)cc4c(OC)cc(F)cc43)nc(C(F)(F)F)n2)sc1C(=O)O [compound 635] | 186 nM | 50 nM
53 | COc1cc(F)c(F)c2c1cc(C)n2CCNc1cc(-c2ccc(C(=O)O)c(OC(F)(F)F)c2)ncn1 [compound 636] | 255 nM | 68 nM
54 | CCCOc1cc(-c2cc(NCCn3c(C)cc4c(OC)cc(F)c(F)c43)ncn2)cc(F)c1C(=O)O [compound 637] | 54 nM | 25 nM
55 | CCCOc1cc(-c2cc(NCCn3c(C)cc4c(OC)cc(F)c(F)c43)ncn2)cc(Cl)c1C(=O)O [compound 638] | 33 nM | 61 nM
56 | COc1cc(F)c(F)c2c1cc(C)n2CCNc1cc(-c2ccc(-c3cnc(N)o3)cc2)ncn1 [compound 639] | 37 nM | 23 nM
57 | COc1cc(F)cc2c1cc(C)n2CCNc1cc(-c2ccc3[nH]c(C(F)(F)F)nc3c2)ncn1 [compound 640] | 430 nM | 483 nM

From patent US12011444B2, “N-substituted indole derivatives as PGE2 receptor modulators” (Idorsia Pharmaceuticals Ltd, priority 2015, dated 2024)
